Test systems include HL-60; SNB-19; UACC-62; UO-31; U-251; SNB-75; HT-29; HCT-116; SW-620; SF-295; SN12C; OVCAR-5; OVCAR-4; IGROV-1; LOX IMVI; EKVX; SK-OV-3; CCRF-CEM; HOP-62; OVCAR-8.
What all share (assay): growth of human tumour cells (NCI), 48 h

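Method: 48-hour compound exposure of cells in 96-well plates, five concentrations, linear interpolation of endpoints. The concentration for 50% growth inhibition is given as GI50.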 Calls of active or inactive are those of the source. Rule as the data show it: active = GI50 up to about 1.1 µM and inactive = higher.

Turning to `CCOC(=O)C(Cc1ccc(N=NN(C)C)cc1)NC(=O)CC1c2ccccc2-c2ccccc21` (stereo not given), the GI50 is > 100 µM (inactive) in the assay with HL-60; > 100 µM (inactive) in the assay with SNB-19; 42.9 µM (inactive) with UACC-62; > 100 µM (inactive) in the assay with UO-31; 39.7 µM (inactive) in the assay with U-251; > 100 µM (inactive) with SNB-75. The GI50 in the assay with HT-29, in the assay on HCT-116, in the assay with SW-620, with SF-295, with SN12C and in the assay on OVCAR-5 was > 100 µM (inactive) in each case. Further, the GI50 was > 100 µM (inactive) in the assay on OVCAR-4; 69.8 µM (inactive) in the assay on IGROV-1; 85.3 µM (inactive) in the assay with LOX IMVI; > 100 µM (inactive) in the assay with EKVX; > 100 µM (inactive) in the assay with SK-OV-3; 62.8 µM (inactive) with CCRF-CEM. Besides, the GI50 in the assay on HOP-62 and in the assay on OVCAR-8 was > 100 µM (inactive) in each case.

`CSc1nc2c(c(N3CCOCC3)n1)C(O)n1c(nc3ccccc31)S2` (stereo not given): the GI50 in the assay with HL-60 was > 100 µM (inactive); in the assay on SNB-19 it was 17.5 µM (inactive); with UACC-62, > 100 µM (inactive); in the assay with UO-31 it was 3.93 µM (inactive); in the assay with U-251, 20.8 µM (inactive); in the assay with SNB-75, 30.5 µM (inactive). Further, the GI50 with HT-29 was > 100 µM (inactive); in the assay with HCT-116 it was > 100 µM (inactive); in the assay with SW-620, 32.1 µM (inactive); with SF-295 it was 33.5 µM (inactive); in the assay on SN12C it was 77.8 µM (inactive); in the assay on OVCAR-5 it was > 100 µM (inactive). The GI50 is 41 µM (inactive) in the assay on OVCAR-4; > 100 µM (inactive) with IGROV-1; > 100 µM (inactive) in the assay on LOX IMVI; > 100 µM (inactive) with EKVX; 96.2 µM (inactive) with SK-OV-3; 21.1 µM (inactive) in the assay on CCRF-CEM. Besides, the GI50 in the assay on HOP-62 was 40.6 µM (inactive); with OVCAR-8, 31.1 µM (inactive).

In the case of `Cc1nc2ccccc2c(=O)n1Nc1ccc(C(=O)O)cc1`, the GI50 in the assay on HL-60, in the assay with SNB-19, in the assay with UACC-62, in the assay with UO-31, in the assay on U-251 and with SNB-75 was > 100 µM (inactive) throughout. The GI50 with HT-29, in the assay with HCT-116, with SW-620, in the assay with SF-295, in the assay with SN12C and with OVCAR-5 was > 100 µM (inactive) in each case. The GI50 with OVCAR-4, with IGROV-1, in the assay with LOX IMVI, with EKVX, with SK-OV-3 and in the assay with CCRF-CEM was > 100 µM (inactive) each time. Further, the GI50 with HOP-62 and in the assay on OVCAR-8 was > 100 µM (inactive) each time.

In the case of `CC(C)[C@](O)(C(=O)OCC1=CCN2CC[C@@H](O)[C@@H]12)[C@H](C)O`, the GI50 in the assay with HL-60, in the assay with SNB-19, in the assay with UACC-62, in the assay with UO-31, in the assay with U-251 and in the assay on SNB-75 was > 375 µM (inactive) each time. For the same molecule, the GI50 in the assay on HT-29 was > 375 µM (inactive); in the assay on HCT-116, > 375 µM (inactive); with SW-620 it was > 237 µM (inactive); in the assay with SF-295, > 375 µM (inactive); in the assay with SN12C, > 375 µM (inactive); in the assay on OVCAR-5, > 278 µM (inactive). For the same molecule, the GI50 is > 375 µM (inactive) in the assay on OVCAR-4; > 308 µM (inactive) in the assay on IGROV-1; > 174 µM (inactive) in the assay with LOX IMVI; > 375 µM (inactive) with EKVX; > 375 µM (inactive) with SK-OV-3; > 375 µM (inactive) with CCRF-CEM. The values for the GI50 in the assay with HOP-62 and in the assay on OVCAR-8 were > 335 µM (inactive) and > 375 µM (inactive), respectively.

Turning to `O=C1C(Br)=CC2([N+](=O)[O-])CCNC3=C(C4=NCCc5c[nH]c(c54)C3=O)C2=C1Br` (stereo not given), the GI50 in the assay on HL-60 was 0.206 µM (active); in the assay with SNB-19, 2.81 µM (inactive); in the assay with UACC-62, 1.72 µM (inactive); with UO-31, 9.59 µM (inactive); in the assay with U-251 it was 1.51 µM (inactive); in the assay with SNB-75, 8.39 µM (inactive). The GI50 in the assay on HT-29 is 0.553 µM (active); in the assay on HCT-116 it was 0.317 µM (active); in the assay with SW-620, 0.0497 µM (active); with SF-295, 1.91 µM (inactive); with SN12C it was 1.78 µM (inactive); in the assay with OVCAR-5, 1.1 µM (active). Also, the GI50 in the assay with OVCAR-4 was 1.76 µM (inactive); in the assay with IGROV-1, 1.99 µM (inactive); with LOX IMVI it was 1.56 µM (inactive); with EKVX it was 2.33 µM (inactive); in the assay with SK-OV-3 it was 3.13 µM (inactive); in the assay on CCRF-CEM, 0.304 µM (active). Besides, the figures for the GI50 in the assay on HOP-62 and in the assay with OVCAR-8 were 3.58 µM (inactive) and 0.365 µM (active), respectively.

`NC(=O)CCC(NCc1c2ccccc2[n+]([O-])c2ccccc12)C(=O)O` (stereo not given): the GI50 in the assay with HL-60 was 29.3 µM (inactive); with SNB-19, > 100 µM (inactive); in the assay on UACC-62, 90.8 µM (inactive); with UO-31 it was 59 µM (inactive); in the assay with U-251, > 100 µM (inactive); in the assay on SNB-75, 49.7 µM (inactive). Also, the GI50 was > 100 µM (inactive) with HT-29; 30.8 µM (inactive) with HCT-116; 52.5 µM (inactive) with SW-620; > 100 µM (inactive) in the assay with SF-295; > 100 µM (inactive) in the assay with SN12C; > 100 µM (inactive) with OVCAR-5. For the same molecule, the GI50 in the assay with OVCAR-4 is 40.1 µM (inactive); in the assay with IGROV-1, > 100 µM (inactive); in the assay on LOX IMVI, 39.1 µM (inactive); with EKVX, > 100 µM (inactive); with SK-OV-3, > 100 µM (inactive); in the assay on CCRF-CEM it was 35.6 µM (inactive). Besides, the GI50 in the assay with HOP-62 and in the assay on OVCAR-8 was > 100 µM (inactive) in each case.
